In publication PMC7365463, “Oxfendazole mediates macrofilaricidal efficacy against the filarial nematode Litomosoides sigmodontis in vivo and inhibits Onchocerca spec. motility in vitro” (PLoS Neglected Tropical Diseases, 2020):
Read-outs that look alike come from different tables or passages of the source. Values belong to the molecule of their own block, whether it stands above or below them.

Assays:
[1] = test system: Onchocerca gutturosa adult male worms; assay: O. gutturosa adult male worm 5-day motility assay
[2] = test system: Onchocerca gutturosa adult male worms; assay: O. gutturosa adult worm MTT/formazan viability assay; conditions: 120 h
[3] = test system: Onchocerca lienalis microfilariae; assay: O. lienalis microfilariae 5-day motility assay; conditions: 120 h
Brugia pahangi [4] = conditions: cited from earlier work
Acanthocheilonema viteae [5] = test system: Acanthocheilonema viteae; set-up: method as in Denham 1980 (Ref. 6); conditions: 80L3, jirds, SC 100mg/kg 5 cons. days, ref Denham 1980 (Ref. 6), cited from earlier work
Breinlia booliati = test system: Breinlia booliati; set-up: method as in Mak 1981 (Ref. 7); conditions: 100L3 (SC), rats, SC 3mg/kg 5 cons. days, patent phase, necropsy 4 weeks p.t.; ref Mak 1981 (Ref. 7); cited from earlier work
Acanthocheilonema viteae [6] = test system: Acanthocheilonema viteae; set-up: method as in Nogami 1987 (Ref. 13); conditions: 50L3 (SC), hamster, SC 10mg/kg 5 cons. days, 12 weeks p.i, necropsy 5 weeks p.t.; ref Nogami 1987 (Ref. 13); cited from earlier work
Litomosoides sigmodontis [7] = test system: Litomosoides sigmodontis; set-up: method as in Reddy 1983 (Ref. 15); conditions: L3 (mite), Mastomys natalensis, patent phase, necropsy 43 days p.t., ref Reddy 1983 (Ref. 15), cited from earlier work
Brugia pahangi [8] = test system: Brugia pahangi; set-up: method as in Reddy 1983 (Ref. 15); conditions: L3 (SC), Mastomys natalensis, patent phase, necropsy 43 days p.t., ref Reddy 1983 (Ref. 15), cited from earlier work
Litomosoides sigmodontis [9] = assay: Patent L. sigmodontis infection in jirds (adult worms, microfilaremia, embryogenesis); conditions: for jirds with few microfilariae in the peripheral blood: between weeks 14 and 16 after treatment
[10] = test system: Onchocerca volvulus pre-adult L5 worms; assay: O. volvulus pre-adult (L5) worm motility assay; conditions: read-out: IC50 of motility inhibition
Experimental: Cryopreserved O. volvulus L3 were thawed, washed and co-cultured with normal human PBMC as previously described. […] The L4 larvae were then transferred into a transwell (Sigma #CLS3472), ~10 L4 per transwell within a 24-well plate and over a monolayer comprised of Human Umbilical Vein Endothelial Cells (HUVEC; Lonza Inc., Allendale, NJ) seeded at a density of 1 x 10^4 cells per well. The larvae were cultured for 80 days using L4 complete media: 1:1 NCTC-109: MEM-alpha and EBM-2 (Clonetics EBM-2 Lonza# CC-3156) at a 60:40 ratio. […] Medium was exchanged 3 times a week and fresh HUVEC monolayers were prepared weekly. A week prior to performing the drug screening assay, the L4 day 80 that has molted to pre-adult worms, L5, were transferred from the transwells into a small petri dish containing fresh complete media. 7–10 L5 worms were retrieved from the petri dish and placed in new transwells containing a freshly prepared HUVEC monolayer. […] After 14 days of treatment, the drug containing media was replaced by complete media without drug. Continuing this assay for a further 19 days, the worms were supplied with fresh media every 2–3 days and the weekly use of fresh HUVEC monolayers. […] All drug concentrations were tested in duplicate. […] IC50 values were calculated using Graph Pad Prism v8.3.

[11] = set-up: method as in PMID 30745383; conditions: daily doses up to 60 mg/kg; cited from earlier work
mammalian tubulin = test system: mammalian tubulin; set-up: method as in PMID 6712717, PMID 1554382; conditions: cited from earlier work
[12] = 50L3 (IP), jirds, SC 25mg/kg 5 cons. days, 70 days p.i., necropsy 5 weeks p.t., ref Surin 1990 (Ref. 11)

clearance of microfilariae from peripheral blood (Litomosoides sigmodontis [9]; jirds, SC 2 mg/kg QD for 5 days, week 4 after treatment start): all microfilariae were cleared
SMILES: COC(=O)Nc1nc2cc(C(=O)c3ccc(F)cc3)ccc2[nH]1 [flubendazole]
Motility Reduction (%) ([1]; 1.25 x 10^-5 M, 24 h): 10%
Motility Reduction (%) ([1]; 1.25 x 10^-5 M, 48 h): 12%
Motility Reduction (%) ([1]; 1.25 x 10^-5 M, 72 h): 33%
Motility Reduction (%) ([1]; 1.25 x 10^-5 M, 96 h): 44%
Motility Reduction (%) ([1]; 1.25 x 10^-5 M, 120 h): 51%
Motility Reduction (%) ([1]; 3.1 x 10^-6 M, 24 h): 4%
Motility Reduction (%) ([1]; 3.1 x 10^-6 M, 48 h): 5%
Motility Reduction (%) ([1]; 3.1 x 10^-6 M, 72 h): 16%
Motility Reduction (%) ([1]; 3.1 x 10^-6 M, 96 h): 38%
Motility Reduction (%) ([1]; 3.1 x 10^-6 M, 120 h): 40%
Motility Reduction (%) ([1]; 5.0 x 10^-5 M, 24 h): 23%
Motility Reduction (%) ([1]; 5.0 x 10^-5 M, 48 h): 22%
Motility Reduction (%) ([1]; 5.0 x 10^-5 M, 72 h): 36%
Motility Reduction (%) ([1]; 5.0 x 10^-5 M, 96 h): 38%
Motility Reduction (%) ([1]; 5.0 x 10^-5 M, 120 h): 54%
Motility Reduction (%) ([1]; 7.8 x 10^-7 M, 24 h): 6%
Motility Reduction (%) ([1]; 7.8 x 10^-7 M, 48 h): 9%
Motility Reduction (%) ([1]; 7.8 x 10^-7 M, 72 h): 13%
Motility Reduction (%) ([1]; 7.8 x 10^-7 M, 96 h): 33%
Motility Reduction (%) ([1]; 7.8 x 10^-7 M, 120 h): 26%
MTT Reduction (%) ([2]; 1.25 x 10^-5 M): 2%
MTT Reduction (%) ([2]; 3.1 x 10^-6 M): 3%
MTT Reduction (%) ([2]; 5.0 x 10^-5 M): 20%
MTT Reduction (%) ([2]; 7.8 x 10^-7 M): 3%
activity against microfilariae compared to oxfendazole [3]: even less active
Reduction of worm burden (Brugia pahangi [4]; 15Ad (IP), jirds, SC 0.7mg/kg 5 cons. days, ref Denham 1979 (Ref. 4)): 40%
Reduction of worm burden (Brugia pahangi [4]; 15Ad (IP), jirds, SC 3.1mg/kg x1, ref Denham 1979 (Ref. 4)): 23%
Reduction of worm burden (Brugia pahangi [4]; 15Ad (IP), jirds, SC 5mg/kg 5 cons. days, 4 days p.i., necropsy 5 weeks p.t., ref Surin 1990 (Ref. 11)): 100%
Reduction of worm burden (Brugia pahangi [4]; 15Ad (IP), jirds, SC 6.3-12.5 mg/kg x1, ref Denham 1979 (Ref. 4)): 70-80%
Reduction of worm burden (Brugia pahangi [4]; 15Ad (IP), jirds, SC 10-50-100mg/ml 5 cons. days, ref Denham 1979 (Ref. 4)): 96-100%
Reduction of worm burden (Brugia pahangi [4]; 15Ad (IP), jirds, SC 25-200mg/kg x1, ref Denham 1979 (Ref. 4)): >98%
Reduction of worm burden (Brugia pahangi [4]; 50L3 (IP), jirds, SC 5mg/kg 5 cons. days, 70 days p.i., necropsy 5 weeks p.t., ref Surin 1990 (Ref. 11)): 98.5%
Reduction of worm burden (Brugia pahangi [4]; [12]): 100%
Reduction of worm burden (Brugia pahangi [4]; 50L3 (IP), jirds, SC 25mg/kg x1, prepatent phase, necropsy 3-9 days p.t., ref Denham 1979 (Ref. 4)): no reduction
Reduction of worm burden (Brugia pahangi [4]; 50L3 (IP), jirds, SC 25mg/kg x1, prepatent phase, necropsy 12-24 days p.t., ref Denham 1979 (Ref. 4)): 80%
Reduction of worm burden (Brugia pahangi [4]; 50L3 (IP), jirds, SC 25mg/kg x1, prepatent phase, necropsy 27-36 days p.t., ref Denham 1979 (Ref. 4)): 100%
Reduction of worm burden (Brugia pahangi [4]; prophylactic, 15Ad (IP), jirds, SC 100mg/kg x1, 2,3,4,5 weeks bef. i., necropsy 35 days pi, ref Denham 1980 (Ref. 1)): 100%
Reduction of worm burden (Brugia pahangi [4]; prophylactic, 15Ad (IP), jirds, SC 100mg/kg x1, 6,9,12 weeks bef. i., necropsy 35 days pi, ref Denham 1980 (Ref. 1)): 92-100%
Reduction of worm burden (Brugia pahangi [4]; prophylactic, 15Ad (IP), jirds, SC 100mg/kg x1, 24 weeks bef. i., necropsy 35 days pi, ref Denham 1980 (Ref. 1)): 9%
Reduction of worm burden (Brugia pahangi [4]; prophylactic, 15Ad (IP), jirds, SC 100mg/kg x1, 2 days bef. i., necropsy 35 days pi, ref Denham 1980 (Ref. 1)): 100%
Reduction of worm burden (Brugia pahangi [4]; prophylactic, 50L3, jirds, SC 25mg/kg x1, 137 days bef. i., necropsy 9-10 weeks p.t., ref Chusattayanond 1984 (Ref. 2)): 8%
Reduction of worm burden (Acanthocheilonema viteae [5]; 6 to 10 days p.i., necropsy 73-75 days p.t.): 100%
Reduction of worm burden (Acanthocheilonema viteae [5]; 42-46 days p.i., necropsy 39-40 days p.t.): 100%
Reduction of worm burden (Breinlia booliati): 100%
Reduction of worm burden (Acanthocheilonema viteae [6]): 68%
Reduction of worm burden (Litomosoides sigmodontis [7]; SC 100mg/kg 5 cons. days): 100%
Reduction of worm burden (Litomosoides sigmodontis [7]; per os 150mg/kg 5 cons. days): 0%
Reduction of worm burden (Brugia pahangi [8]; SC 100mg/kg 5 cons. days): 100%
Reduction of worm burden (Brugia pahangi [8]; per os 150mg/kg 5 cons. days): 20%
adult worms at necropsy (Litomosoides sigmodontis [9]; jirds, SC 2 mg/kg QD for 5 days, necropsy 16 weeks post-treatment): no adult worms were recovered

SMILES: COC(=O)Nc1nc2ccc([S+]([O-])c3ccccc3)cc2[nH]1 (stereo not drawn) [oxfendazole]
Motility Reduction (%) ([1]; 1.25 x 10^-5 M, 24 h): 10%
Motility Reduction (%) ([1]; 1.25 x 10^-5 M, 48 h): 3%
Motility Reduction (%) ([1]; 1.25 x 10^-5 M, 72 h): 23%
Motility Reduction (%) ([1]; 1.25 x 10^-5 M, 96 h): 31%
Motility Reduction (%) ([1]; 1.25 x 10^-5 M, 120 h): 40%
Motility Reduction (%) ([1]; 3.1 x 10^-6 M, 24 h): 10%
Motility Reduction (%) ([1]; 3.1 x 10^-6 M, 48 h): 5%
Motility Reduction (%) ([1]; 3.1 x 10^-6 M, 72 h): 33%
Motility Reduction (%) ([1]; 3.1 x 10^-6 M, 96 h): 31%
Motility Reduction (%) ([1]; 3.1 x 10^-6 M, 120 h): 40%
Motility Reduction (%) ([1]; 5.0 x 10^-5 M, 24 h): 16%
Motility Reduction (%) ([1]; 5.0 x 10^-5 M, 48 h): 9%
Motility Reduction (%) ([1]; 5.0 x 10^-5 M, 72 h): 29%
Motility Reduction (%) ([1]; 5.0 x 10^-5 M, 96 h): 33%
Motility Reduction (%) ([1]; 5.0 x 10^-5 M, 120 h): 44%
Motility Reduction (%) ([1]; 7.8 x 10^-7 M, 24 h): 4%
Motility Reduction (%) ([1]; 7.8 x 10^-7 M, 48 h): 5%
Motility Reduction (%) ([1]; 7.8 x 10^-7 M, 72 h): 20%
Motility Reduction (%) ([1]; 7.8 x 10^-7 M, 96 h): 31%
Motility Reduction (%) ([1]; 7.8 x 10^-7 M, 120 h): 38%
MTT Reduction (%) ([2]; 1.25 x 10^-5 M): 12%
MTT Reduction (%) ([2]; 3.1 x 10^-6 M): 17%
MTT Reduction (%) ([2]; 5.0 x 10^-5 M): 11%
MTT Reduction (%) ([2]; 7.8 x 10^-7 M): 7%
IC50 ([10]; 336 h, day 14 (14 days drug exposure)): 7590 nM
IC50 ([10]; day 19 of culture (14 days drug, 5 days without drug)): 28.6 nM
IC50 ([10]; day 33 of culture (14 days drug, 19 days without drug)): 10.2 nM
microfilariae motility decrease ([3]; 1.25·10^−5 M): 53%
microfilariae motility decrease ([3]; 5·10^−5 M): 67%
effect on microfilariae motility ([3]; concentrations lower than 1.25·10^−5 M): No effect
tolerability in healthy volunteers [11]: acceptable side effects
affinity to mammalian tubulin (mammalian tubulin): weak affinity
Reduction of worm burden (Brugia pahangi [4]; 15Ad (IP), jirds, SC 50-25-12.5mg/kg 5 cons. days, 4 days p.i., necropsy 5 weeks p.t., ref Surin 1990 (Ref. 11)): 100%
Reduction of worm burden (Brugia pahangi [4]; [12]): 93.5%
Reduction of worm burden (Brugia pahangi [4]; 50L3 (IP), jirds, SC 50mg/kg 5 cons. days, 70 days p.i., necropsy 5 weeks p.t., ref Surin 1990 (Ref. 11)): 100%
Reduction of worm burden (Litomosoides sigmodontis [7]; SC 100mg/kg 5 cons. days): 100%
Reduction of worm burden (Litomosoides sigmodontis [7]; per os 150mg/kg 5 cons. days): 0%
Reduction of worm burden (Brugia pahangi [8]; SC 100mg/kg 5 cons. days): 0%
Reduction of worm burden (Brugia pahangi [8]; per os 150mg/kg 5 cons. days): 33%
jirds with few microfilariae in the peripheral blood (Litomosoides sigmodontis [9]; 2 x 5 mg/kg BID PO 10 days): one jird out of four
jirds with few microfilariae in the peripheral blood (Litomosoides sigmodontis [9]; 2 x 12.5 mg/kg BID PO 10 days): one jird out of five
embryogenesis in recovered female worms (embryogram) (Litomosoides sigmodontis [9]; jirds, 2 x 5 mg/kg BID PO 10 days, 16 weeks after treatment start): embryogenesis was inhibited
animals with complete clearance of adult worms (Litomosoides sigmodontis [9]; jirds, PO BID 2 x 5 mg/kg for 10 days from 12 wpi, 16 weeks after treatment start): two animals out of four
animals with complete clearance of adult worms (Litomosoides sigmodontis [9]; jirds, PO BID 2 x 12.5 mg/kg for 10 days from 12 wpi, 16 weeks after treatment start): four animals out of five
microfilariae cleared from the peripheral blood (Litomosoides sigmodontis [9]; jirds, both oxfendazole groups (2 x 12.5 and 2 x 5 mg/kg BID PO 10 days), 3 weeks after treatment): more than 99%
